According to US10053455B2, “Diazaspiroalkaneone-substituted oxazole derivatives as spleen tyrosine kinase inhibitors” (AB SCIENCE, priority 2014, dated 2018):
Read-outs that look alike come from different tables or passages of the source.

How the values were obtained:
[1] = system: rat neonatal cardiac myocytes; test: Intracellular ROS in rat cardiomyocytes (CM-H2DCFDA); type: cell-based; conditions: 10 μM, 8 hours
Protocol: 2×10^3 human cardiomyocytes (Promocell C-12810) or 4×10^4 rat neonatal cardiac myocytes (R-CM-561 Lonza) were seeded per well of a 96-well plate (black wall for fluorimetry usage (655090 Greiner Bio one)) 24 hours before drug treatment. Treatment was initiated by addition of a drug solution for a 10 μM final concentration. Doxorubicin was used at 5 μM as positive control for the induction of ROS. After 8 hours treatment with drugs, cells were loaded with 10 μM of CM-H2DCFDA (C6827 Invitrogen) for 1 hour, followed by 2 washes in PBS. CM-H2DCFDA is a membrane permeable reagent that can be enzymatically converted to dichlorodihydrofluorescein (DCF) in the presence of ROS. Fluorescent DCF was detected using a fluorescence spectrophotometer (BMG Labtech) with excitation of 485 nm and emission of 560 nm. The results were expressed as a relative percent of DCF-fluorescence in control cells.
Monitoring drug-induced increase in the production of reactive oxygen species (ROS) in cardiomyocyte may be important to predict the cardiotoxic side effects of a drug (Table 11). The production of ROS in human and rat cardiomyocytes was studied following 8 hours drug treatment at concentration of 10 μM. The results were expressed as a percent relative to the production of ROS induced by the cardiotoxic chemotherapeutic agent doxorubicin (100%).

[2] = system: HepG2 tumor cell line; test: Mitochondrial ToxGlo assay (ATP production and cytotoxicity); type: cell-based; conditions: HepG2, 20 μM, 2 hours
Protocol: Drug-induced mitochondrial toxicity was evaluated by monitoring oxygen consumption using a Clark oxygen electrode on mitochondria isolated from heart of healthy mouse (Mitologics S.A.S, France). Briefly, isolated mitochondria are placed at 37° C. in a sealed chamber that is exposed to the surface of a Clark oxygen electrode. The presence of oxygen caused the electrode to deliver a current to the oxygen monitor, which amplified the current and converted it to a voltage output that was directly proportional to the concentration of oxygen in the chamber. Drug-induced mitochondrial toxicity was also evaluated by monitoring mitochondrial ATP production using a cell-based assay (Mitochondrial ToxGlo™ assay, Promega Corporation (cat#G8000)). […] The test was performed on HepG2 tumor cell line grown in galactose medium in order to force the cancer cells to produce ATP via oxidative phosphorylation (crabtree effect). Cells were treated for 2 hours with 20 μM drug before analysis of ATP detection (Luminescent signal) and cytotoxicity (Fluorescent signal) as described by manufacturers using PHERAstar and POLARstar OMEGA microplate readers respectively (BMG Labteck Sari).

[3] = target: BCR-ABL (Homo sapiens, UniProt P00519); test: Cell-based proliferation assay on BaF3 model, BCR-ABL
Protocol: Cell-based proliferation and viability assay CellTiter-Bleue cell-based survival/proliferation assay (Promega G8080) was performed on BaF3 models. […] Cells were grown for 48-72 h at 37° C. and then incubated with 10 μl/well of Promega CellTiter-Bleue reagent for 4 h at 37° C. The amount of formazan dye formed was quantified by its absorbance at 450 nm using a scanning multiwell spectrophotometer (POLARstar Omega, BMG labtech, France). A blank well without cells was used as a background control for the spectrophotometer and all assays were performed in duplicates and the experiments were repeated at least twice.

[4] = target: SYK kinase (Homo sapiens (Human), UniProt P43405); test: In vitro SYK inhibition assay (HTRF kinase assay); type: biochemical
Protocol: SYK kinase was purified as a full length protein in a baculovirus system near homogeneity. All kinase assays were performed with the Kinase TK (tyrosine kinase) HTRF (Homogeneous Time Resolved Fluorescence) assay developed by Cisbio international. […] Reactions were initiated upon introduction of the enzyme and terminated with the addition of one reaction volume (25 μl) of HTRF detection buffer. Plates were incubated for one hour at room temperature and the time resolved Fluorescence resonance energy transfer signal was measured in a Pherastar FS microplate reader (BMG Labtech).
Most of the kinases tested in this study were cloned, expressed and purified in the facilities of the inventors. They were expressed either as N-terminus hexahistidine-, hexahistidine-asparagine- or GST-tagged enzymes in a baculovirus or in a Colibacille expression system. Remaining enzymes (JAKs) were purchased from Millipore or Proqinase. For each enzyme, steady state kinetic parameters were determined and validated with known inhibitors.
The analysis of the effect of compounds on kinase activity was assessed with the HTRF® KinEASE assay (Cisbio International), an immuno-assay based on the quantification of the level of phosphorylation of a biotinylated peptide substrate using anti-phospho-specific antibody labeled with Europium (Eu^3+) cryptate. This assay comprises two steps: —an enzymatic step, during which the peptide substrate, the kinase, ATP, Mg^2+ and/or Mn^2+ are incubated with varying concentration of drug (from 0 to 10 μM); —a detection step, at the end of the reaction (stopped by addition of EDTA which chelates Mg^2+), the antibody anti-phospho peptide-Eu^3+ (emission 620 nm) and streptavidin XL-665 (emission 665 nm) are added to the reaction mix. After incubation, the obtained signal is proportional to the concentration of phosphorylated peptide in the sample. All measurements were performed on a BMG Labtech Pherastar FS apparatus. Results are expressed in delta fluorescence (DF) unit defined as follow DF %=[(ratio−ratio blank)/(ratio blank)]*100, where ratio=(665 nm/620 nm)*10^4. Each experiment was performed in duplicate and repeated two or three times.

Sequence of BCR-ABL (P00519 whole entry, looked up, stated change not applied): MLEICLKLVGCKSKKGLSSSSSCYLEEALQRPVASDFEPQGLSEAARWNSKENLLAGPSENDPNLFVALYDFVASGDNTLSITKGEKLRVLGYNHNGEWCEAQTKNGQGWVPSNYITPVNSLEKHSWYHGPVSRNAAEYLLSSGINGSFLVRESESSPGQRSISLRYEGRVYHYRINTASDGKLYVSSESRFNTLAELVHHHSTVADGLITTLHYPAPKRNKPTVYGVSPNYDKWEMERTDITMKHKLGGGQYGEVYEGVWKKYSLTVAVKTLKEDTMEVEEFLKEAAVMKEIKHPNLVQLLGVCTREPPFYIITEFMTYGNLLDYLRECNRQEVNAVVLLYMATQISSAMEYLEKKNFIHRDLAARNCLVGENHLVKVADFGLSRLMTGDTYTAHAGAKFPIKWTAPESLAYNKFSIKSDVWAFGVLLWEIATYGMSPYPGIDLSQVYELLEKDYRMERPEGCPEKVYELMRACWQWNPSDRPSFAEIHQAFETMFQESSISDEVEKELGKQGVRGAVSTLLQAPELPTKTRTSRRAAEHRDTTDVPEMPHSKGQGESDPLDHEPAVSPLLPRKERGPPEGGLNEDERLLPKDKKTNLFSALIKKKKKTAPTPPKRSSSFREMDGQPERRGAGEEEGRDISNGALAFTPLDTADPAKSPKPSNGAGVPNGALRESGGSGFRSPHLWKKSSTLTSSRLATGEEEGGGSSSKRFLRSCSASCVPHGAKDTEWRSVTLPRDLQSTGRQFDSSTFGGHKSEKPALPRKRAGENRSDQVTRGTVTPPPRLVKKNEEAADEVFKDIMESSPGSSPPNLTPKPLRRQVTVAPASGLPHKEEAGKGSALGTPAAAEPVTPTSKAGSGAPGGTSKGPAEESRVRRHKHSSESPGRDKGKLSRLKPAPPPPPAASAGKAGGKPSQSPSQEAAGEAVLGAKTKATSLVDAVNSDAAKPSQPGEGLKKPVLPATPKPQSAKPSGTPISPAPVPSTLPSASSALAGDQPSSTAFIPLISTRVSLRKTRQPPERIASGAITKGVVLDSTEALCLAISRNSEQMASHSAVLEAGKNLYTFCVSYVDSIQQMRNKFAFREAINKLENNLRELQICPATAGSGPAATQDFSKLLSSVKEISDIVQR

## Cc1ccnc(Nc2cccc(-c3cnc(N4CCNC(=O)C45CC5)o3)c2)n1 [Compound 001, 4-{5-[3-(4-Methyl-pyrimidin-2-ylamino)-phenyl]-oxazol-2-yl}-4,7-diaza-spiro[2.5]octan-8-one]
[1]
  ROS production, activity relative to doxorubicine (100%), Rat-CM: 0%
[2]
  ATP production relative to DMSO (100%) Mito ToxGlo: 104%
  Cytotoxicity relative to DMSO (0%) Mito ToxGlo: 11%
[2]; listed as compound 001
  ATP production relative to DMSO (100%) Mito ToxGlo: 104%
  Cytotoxicity relative to DMSO (0%) Mito ToxGlo: 11%
[3]
  IC50: 10000 nM
[4]; enzymatic determination, read-out: Kinase activity profile IC50 Syk
  IC50: 41 nM
[4]; read-out: Syk (IC50)
  IC50: < 500 nM
